Source: article PMC10803253, “Structural insights into the iron nitrogenase complex” (Nature Structural & Molecular Biology, 2023)

Key:
[1] = molecular target: T1, Fe nitrogenase catalytic component, AnfD FeFeco site, in the Anf(DGK)2(H2)2 complex (Rhodobacter capsulatus, UniProt D5ANJ7); assay: cryo-EM structure ([…] Å); assay type: binding; details: bidentate ligand of FeFeco iron Fe8 via 2-hydroxyl and 2-carboxyl; co-purified; ADP·AlF3-trapped complex
T1 construct: C-terminal Strep-tag II on AnfD, N-terminal His6-tag on AnfH, no linkers; plasmid expression in R. capsulatus MM0436; AlF3-trapped Anf(DGK)2(H2)2; with Nitrogenase iron-iron protein beta chain; Nitrogenase iron-iron protein delta chain; Nitrogenase iron protein (iron-iron nitrogenase reductase)

[2] = molecular target: T2, Fe nitrogenase reductase component AnfH2 in the Anf(DGK)2(H2)2 complex (Rhodobacter capsulatus, UniProt D5ANJ6); assay: cryo-EM structure ([…] Å); assay type: binding; details: covalent (Cys97 and Cys132 of two AnfH subunits); co-purified
T2 construct: gene anfH; N-terminal His6-tag on AnfH, C-terminal Strep-tag II on AnfD, no linkers; plasmid expression in R. capsulatus MM0436; AlF3-trapped Anf(DGK)2(H2)2, ~360 kDa by mass photometry; with Nitrogenase iron-iron protein alpha chain; Nitrogenase iron-iron protein beta chain; Nitrogenase iron-iron protein delta chain
T2 sequence (D5ANJ6 1-275): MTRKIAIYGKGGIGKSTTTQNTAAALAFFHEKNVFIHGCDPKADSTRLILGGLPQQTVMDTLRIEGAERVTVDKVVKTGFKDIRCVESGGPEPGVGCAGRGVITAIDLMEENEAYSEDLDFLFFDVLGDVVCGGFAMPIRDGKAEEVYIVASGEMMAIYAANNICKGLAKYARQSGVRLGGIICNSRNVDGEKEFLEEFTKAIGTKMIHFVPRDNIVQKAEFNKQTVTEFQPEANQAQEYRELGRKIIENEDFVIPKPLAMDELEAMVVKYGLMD
T2 sequence (D5ANJ7 1-527 partner): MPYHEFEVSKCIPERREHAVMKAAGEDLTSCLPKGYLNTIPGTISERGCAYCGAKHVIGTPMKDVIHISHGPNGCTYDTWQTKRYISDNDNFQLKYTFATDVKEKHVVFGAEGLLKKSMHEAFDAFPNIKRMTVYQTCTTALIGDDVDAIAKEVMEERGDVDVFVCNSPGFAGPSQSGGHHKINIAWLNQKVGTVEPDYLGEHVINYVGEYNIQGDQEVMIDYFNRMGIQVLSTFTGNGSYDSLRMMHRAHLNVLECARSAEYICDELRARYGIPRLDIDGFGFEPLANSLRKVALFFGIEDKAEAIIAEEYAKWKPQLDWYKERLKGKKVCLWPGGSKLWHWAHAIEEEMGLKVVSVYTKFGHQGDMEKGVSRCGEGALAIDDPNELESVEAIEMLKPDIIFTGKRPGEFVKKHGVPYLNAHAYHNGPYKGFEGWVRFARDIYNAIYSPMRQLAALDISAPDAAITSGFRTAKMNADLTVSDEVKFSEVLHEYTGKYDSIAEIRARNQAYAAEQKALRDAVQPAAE
T2 sequence (D5ANJ9 1-460 partner): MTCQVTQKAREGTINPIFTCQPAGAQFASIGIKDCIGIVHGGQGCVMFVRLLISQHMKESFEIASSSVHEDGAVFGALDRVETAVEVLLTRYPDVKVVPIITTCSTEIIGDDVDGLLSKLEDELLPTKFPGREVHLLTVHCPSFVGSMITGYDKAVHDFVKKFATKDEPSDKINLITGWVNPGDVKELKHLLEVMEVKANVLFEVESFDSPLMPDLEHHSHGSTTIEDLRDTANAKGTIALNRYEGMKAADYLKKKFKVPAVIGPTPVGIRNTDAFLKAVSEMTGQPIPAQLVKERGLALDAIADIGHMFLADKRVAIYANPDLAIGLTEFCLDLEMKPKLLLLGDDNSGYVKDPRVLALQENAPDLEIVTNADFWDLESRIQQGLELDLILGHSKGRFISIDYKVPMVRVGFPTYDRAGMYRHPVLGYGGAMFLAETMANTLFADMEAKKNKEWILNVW
T2 sequence (D5ANJ8 1-115 partner): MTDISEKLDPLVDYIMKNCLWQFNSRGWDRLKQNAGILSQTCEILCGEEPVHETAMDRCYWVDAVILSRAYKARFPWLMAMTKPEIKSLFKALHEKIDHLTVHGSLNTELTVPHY

T1 sequence (D5ANJ9 entry or part of it): as the sequence (D5ANJ9 1-460 partner) above
T1 sequence (D5ANJ6 entry or part of it, further chain): as the sequence (D5ANJ6 1-275) above
T1 sequence (D5ANJ7 entry or part of it): as the sequence (D5ANJ7 1-527 partner) above
T1 sequence (D5ANJ8 entry or part of it, further chain): as the sequence (D5ANJ8 1-115 partner) above

Compound	cryo-EM structure (2.35 Å) [1]	cryo-EM structure (2.35 Å) [2]
O=C(O)CC[C@@](O)(CC(=O)O)C(=O)O [(R)-homocitrate]	additionally coordinated by a bidentate (R)-homocitrate ligand that binds the iron atom	–
[S]12[Fe]3[S]4[Fe]1[S]1[Fe]2[S]3[Fe]41 [[Fe4S4] cluster]	–	we observed an [Fe4S4] cluster coordinated by Cys97 and Cys132
